This passage reports EC50 and Emax results from patent US12281149B2, “Modulators of G-protein coupled receptors” (priority 2021, dated 2025).

*1 amine or outer side, *2 acyl side, *3 side chain or, on linkers, in order; H or OH if unused. Where a SMILES comes first, the peptide text is derived from it. Side-chain parts run from the residue outwards. [ ]: non-standard residue; d: D form. The star is where a group is joined. Isobutyryl(2-(3-CN-5-F-Ph)) = CC(C)(C(=O)*)c1cc(F)cc(C#N)c1; C20 diacid = O=C(O)CCCCCCCCCCCCCCCCCCC(=O)*; X52 = CC(C)(C(=O)*)c1cc(F)cc(OC(F)(F)F)c1; γGlu = O=C(O)[C@H](CCC(=O)[*:2])N[*:1]; β3hE = N[C@@H](CCC(=O)O)CC(=O)O; β3hD = NC(CC(=O)O)CC(=O)O; AEEA = NCCOCCOCC(=O)O; Aib = CC(C)(N)C(=O)O; βAla = NCCC(=O)O Where only a bound is given, the exact number is not on record here.

Format in all cases: cell-based
The target of assay [1] is T1, GLP-1 receptor (Homo sapiens, UniProt P43220). The experiment in a line: HitHunter cAMP assay, GLP-1 receptor. To be noted: for EC50: CHO cells stably expressing human GLP-1 receptor, cAMP accumulation, 30 min, read-out: EC50 GLP-1R; for Emax: CHO cells, cAMP, normalized to maximum signal from GLP-1 (high) and DMSO (low), read-out: Emax GLP-1R. (Changes in cAMP serve as a functional read-out for many G protein-coupled receptors.)

Assay [2] addresses T2, GIP receptor (Homo sapiens, UniProt P48546).
T2 sequence (P48546 22-466): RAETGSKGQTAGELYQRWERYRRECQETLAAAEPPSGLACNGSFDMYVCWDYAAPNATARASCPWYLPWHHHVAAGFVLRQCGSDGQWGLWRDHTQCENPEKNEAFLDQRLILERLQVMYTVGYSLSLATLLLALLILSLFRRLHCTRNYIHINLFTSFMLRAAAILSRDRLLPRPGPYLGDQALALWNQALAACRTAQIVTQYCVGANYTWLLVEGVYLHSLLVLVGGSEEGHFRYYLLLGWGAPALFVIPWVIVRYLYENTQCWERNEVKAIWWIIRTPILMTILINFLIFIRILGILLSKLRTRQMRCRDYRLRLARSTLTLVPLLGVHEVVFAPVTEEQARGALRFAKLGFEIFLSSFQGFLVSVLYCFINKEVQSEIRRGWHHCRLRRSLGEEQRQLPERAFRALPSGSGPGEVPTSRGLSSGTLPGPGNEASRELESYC
The assay is described as follows: HitHunter cAMP assay, GIP receptor. To be noted: for EC50: CHO cells stably expressing GIP receptor, cAMP accumulation, 30 min, read-out: EC50 GIP-1R; for Emax: CHO cells, cAMP, normalized to maximum signal from GIP (high) and DMSO (low), read-out: Emax GIP-1R.

The target in assay [3] is T2, GIP receptor. The experiment in a line: PathHunter β-arrestin assay, GIP receptor. Further details: host or cells: PathHunter CHO-K1 GIPR β-Arrestin Cell Line. To be noted: β-arrestin-2 recruitment, PathHunter CHO-K1 GIPR β-Arrestin Cell Line, 90 min at 37° C.; normalized to GIP; read-out: GIPR β Arrestin EC50. Background: Recruitment of arrestin is a read-out of receptor activation apart from second messengers.

In assay [4] the target is T1, GLP-1 receptor. The assay is described as follows: PathHunter β-arrestin assay, GLP-1 receptor. Further details: host or cells: PathHunter CHO-K1 GLP1R β-Arrestin Cell Line. The settings on record: β-arrestin-2 recruitment, PathHunter CHO-K1 GLP1R β-Arrestin Cell Line, 90 min at 37° C.; normalized to GLP-1; read-out: GLP-1R β Arrestin EC50.

T1 sequence (P43220 24-463): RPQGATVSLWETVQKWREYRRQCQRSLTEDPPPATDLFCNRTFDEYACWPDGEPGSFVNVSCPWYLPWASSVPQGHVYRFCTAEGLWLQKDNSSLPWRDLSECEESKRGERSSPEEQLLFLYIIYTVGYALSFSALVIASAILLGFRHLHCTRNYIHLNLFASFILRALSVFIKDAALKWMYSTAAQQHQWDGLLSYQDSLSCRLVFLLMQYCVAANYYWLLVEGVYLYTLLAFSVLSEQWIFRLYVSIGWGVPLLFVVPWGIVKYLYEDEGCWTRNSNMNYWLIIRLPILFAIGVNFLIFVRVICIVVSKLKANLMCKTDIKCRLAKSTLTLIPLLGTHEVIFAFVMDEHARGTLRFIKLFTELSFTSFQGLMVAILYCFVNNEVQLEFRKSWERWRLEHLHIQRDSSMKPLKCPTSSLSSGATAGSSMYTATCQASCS

Regarding `CC[C@H](C)[C@H](NC(=O)[C@H](CC(C)C)NC(=O)[C@H](Cc1c[nH]c2ccccc12)NC(=O)[C@H](CCC(N)=O)NC(=O)[C@@H](NC(=O)[C@H](Cc1ccccc1)NC(=O)[C@H](C)NC(=O)[C@H](CCCCNC(=O)COCCOCCNC(=O)COCCOCCNC(=O)CC[C@H](NC(=O)CCCCCCCCCCCCCCCCCCC(=O)O)C(=O)O)NC(=O)[C@H](CCC(N)=O)NC(=O)[C@H](C)NC(=O)[C@@H](NC(=O)[C@H](CCCCN)NC(=O)[C@H](CC(=O)O)NC(=O)[C@H](CC(C)C)NC(=O)C(C)(C)NC(=O)[C@@H](NC(=O)[C@H](CO)NC(=O)[C@H](Cc1ccc(O)cc1)NC(=O)[C@H](CC(=O)O)NC(=O)[C@H](CO)NC(=O)[C@@H](NC(=O)[C@H](Cc1ccccc1)NC(=O)[C@@H](NC(=O)CNC(=O)[C@H](CCC(=O)O)NC(=O)CCNC(=O)C(C)(C)c1cc(F)cc(OC(F)(F)F)c1)[C@@H](C)O)[C@@H](C)O)[C@@H](C)CC)[C@@H](C)CC)C(C)C)C(=O)N[C@@H](C)C(=O)NCC(=O)NCC(=O)N1CCC[C@H]1C(=O)N[C@@H](CO)C(=O)N[C@@H](CO)C(=O)NCC(=O)N[C@@H](C)C(=O)N1CCC[C@H]1C(=O)N1CCC[C@H]1C(=O)N1CCC[C@H]1C(=O)N[C@@H](CO)C(N)=O` [Compound 112] ({X52-βAla}-EGTFTSDYSI[Aib]LDKIAQK([AEEA-AEEA-γGlu-C20 diacid])AFVQWLIAGGPSSGAPPPS-NH2), the EC50 at GLP-1 receptor [1] was 1 to 10 nM; at GIP receptor [2] it was 100 to 1000 nM; at GIP receptor [3], more than 1000 nM; at GLP-1 receptor [4] it was more than 1000 nM. In addition, the Emax on GLP-1 receptor [1] was 115%; on GIP receptor [2], 99%.
With `CC[C@H](C)[C@H](NC(=O)[C@H](CO)NC(=O)[C@H](Cc1ccc(O)cc1)NC(=O)[C@H](CC(=O)O)NC(=O)[C@H](CO)NC(=O)[C@@H](NC(=O)[C@H](Cc1ccccc1)NC(=O)[C@@H](NC(=O)CNC(=O)[C@H](CCC(=O)O)NC(=O)CCNC(=O)C(C)(C)c1cc(F)cc(C#N)c1)[C@@H](C)O)[C@@H](C)O)C(=O)N[C@@H](Cc1ccc(O)cc1)C(=O)N[C@@H](CC(C)C)C(=O)N[C@@H](CC(=O)O)C(=O)N[C@@H](CCCCN)C(=O)N[C@@H](CCCCNC(=O)COCCOCCNC(=O)COCCOCCNC(=O)CC[C@H](NC(=O)CCCCCCCCCCCCCCCCCCC(=O)O)C(=O)O)C(=O)N[C@@H](C)C(=O)N[C@@H](C)C(=O)NC(C)(C)C(=O)N[C@@H](CCC(=O)O)C(=O)N[C@@H](Cc1ccccc1)C(=O)N[C@H](C(=O)N[C@@H](CC(N)=O)C(=O)N[C@@H](Cc1c[nH]c2ccccc12)C(=O)N[C@@H](CC(C)C)C(=O)N[C@@H](CC(C)C)C(=O)N[C@@H](C)C(=O)NCC(=O)NCC(=O)N1CCC[C@H]1C(=O)N[C@@H](CO)C(=O)N[C@@H](CO)C(=O)NCC(=O)N[C@@H](C)C(=O)N1CCC[C@H]1C(=O)N1CCC[C@H]1C(=O)N1CCC[C@H]1C(=O)N[C@@H](CO)C(N)=O)C(C)C` [Compound 114] ({Isobutyryl(2-(3-CN-5-F-Ph))-βAla}-EGTFTSDYSIYLDKK([AEEA-AEEA-γGlu-C20 diacid])AA[Aib]EFVNWLLAGGPSSGAPPPS-NH2), the EC50 was 0.1 to 1 nM on GLP-1 receptor [1], 10 to 100 nM at GIP receptor [2], more than 1000 nM at GIP receptor [3] and more than 1000 nM at GLP-1 receptor [4]. Moreover, the Emax on GLP-1 receptor [1] worked out at 114%; on GIP receptor [2], 95%.
`CC[C@H](C)[C@H](NC(=O)[C@H](CC(C)C)NC(=O)[C@H](Cc1c[nH]c2ccccc12)NC(=O)[C@H](CCC(N)=O)NC(=O)[C@@H](NC(=O)[C@H](Cc1ccccc1)NC(=O)[C@H](C)NC(=O)[C@H](CCCCNC(=O)COCCOCCNC(=O)COCCOCCNC(=O)CC[C@H](NC(=O)CCCCCCCCCCCCCCCCCCC(=O)O)C(=O)O)NC(=O)[C@H](CCC(N)=O)NC(=O)[C@H](C)NC(=O)[C@@H](NC(=O)[C@H](CCCCN)NC(=O)[C@H](CC(=O)O)NC(=O)[C@H](CC(C)C)NC(=O)C(C)(C)NC(=O)[C@@H](NC(=O)[C@H](CO)NC(=O)[C@H](Cc1ccc(O)cc1)NC(=O)[C@H](CC(=O)O)NC(=O)[C@H](CO)NC(=O)[C@@H](NC(=O)[C@H](Cc1ccccc1)NC(=O)[C@@H](NC(=O)CNC(=O)C[C@H](CC(=O)O)NC(=O)CCNC(=O)C(C)(C)c1cc(F)cc(C#N)c1)[C@@H](C)O)[C@@H](C)O)[C@@H](C)CC)[C@@H](C)CC)C(C)C)C(=O)N[C@@H](C)C(=O)NCC(=O)NCC(=O)N1CCC[C@H]1C(=O)N[C@@H](CO)C(=O)N[C@@H](CO)C(=O)NCC(=O)N[C@@H](C)C(=O)N1CCC[C@H]1C(=O)N1CCC[C@H]1C(=O)N1CCC[C@H]1C(=O)N[C@@H](CO)C(N)=O` [Compound 115] ({Isobutyryl(2-(3-CN-5-F-Ph))-βAla}-[β3hD]GTFTSDYSI[Aib]LDKIAQK([AEEA-AEEA-γGlu-C20 diacid])AFVQWLIAGGPSSGAPPPS-NH2): the EC50 is 1 to 10 nM at GLP-1 receptor [1], 100 to 1000 nM at GIP receptor [2], more than 1000 nM on GIP receptor [3] and more than 1000 nM on GLP-1 receptor [4]. The Emax was determined as 120% on GLP-1 receptor [1] and 111% at GIP receptor [2].
For `CC[C@H](C)[C@H](NC(=O)[C@H](CC(C)C)NC(=O)[C@H](Cc1c[nH]c2ccccc12)NC(=O)[C@H](CCC(N)=O)NC(=O)[C@@H](NC(=O)[C@H](Cc1ccccc1)NC(=O)[C@H](C)NC(=O)[C@H](CCCCNC(=O)COCCOCCNC(=O)COCCOCCNC(=O)CC[C@H](NC(=O)CCCCCCCCCCCCCCCCCCC(=O)O)C(=O)O)NC(=O)[C@H](CCC(N)=O)NC(=O)[C@H](C)NC(=O)[C@@H](NC(=O)[C@H](CCCCN)NC(=O)[C@H](CC(=O)O)NC(=O)[C@H](CC(C)C)NC(=O)C(C)(C)NC(=O)[C@@H](NC(=O)[C@H](CO)NC(=O)[C@H](Cc1ccc(O)cc1)NC(=O)[C@H](CC(=O)O)NC(=O)[C@H](CO)NC(=O)[C@@H](NC(=O)[C@H](Cc1ccccc1)NC(=O)[C@@H](NC(=O)CNC(=O)C[C@H](CCC(=O)O)NC(=O)CCNC(=O)C(C)(C)c1cc(F)cc(C#N)c1)[C@@H](C)O)[C@@H](C)O)[C@@H](C)CC)[C@@H](C)CC)C(C)C)C(=O)N[C@@H](C)C(=O)NCC(=O)NCC(=O)N1CCC[C@H]1C(=O)N[C@@H](CO)C(=O)N[C@@H](CO)C(=O)NCC(=O)N[C@@H](C)C(=O)N1CCC[C@H]1C(=O)N1CCC[C@H]1C(=O)N1CCC[C@H]1C(=O)N[C@@H](CO)C(N)=O` [Compound 116] ({Isobutyryl(2-(3-CN-5-F-Ph))-βAla}-[β3hE]GTFTSDYSI[Aib]LDKIAQK([AEEA-AEEA-γGlu-C20 diacid])AFVQWLIAGGPSSGAPPPS-NH2), the EC50 at GLP-1 receptor [1] is 10 to 100 nM; at GIP receptor [2], 100 to 1000 nM; at GIP receptor [3], more than 1000 nM; on GLP-1 receptor [4] it was more than 1000 nM. The Emax on GLP-1 receptor [1] turned out to be 94%; on GIP receptor [2], 66%.

The EC50 is the concentration giving half of the maximal effect. Usually Emax stands for the maximal effect, on the per cent scale that the assay sets.
